According to PubChem BioAssay (NCI):
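Exposure lasted 48 hours, with cells grown in 96-well plates and compounds tested at five concentrations. Here, GI50 denotes the concentration required for 50% inhibition of growth. TGI: concentration producing complete growth inhibition.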

Tests used:
Test in all cases: growth of human tumour cells (NCI), 48 h
786-0 renal = system: 786-0 renal
A498 renal = system: A498 renal
A549 NSCLC = system: A549 NSCLC
ACHN renal = system: ACHN renal
BT-549 breast = system: BT-549 breast
CAKI-1 renal = system: CAKI-1 renal
CCRF-CEM leukemia = system: CCRF-CEM leukemia
COLO 205 colon = system: COLO 205 colon
DU-145 prostate = system: DU-145 prostate
HCC-2998 colon = system: HCC-2998 colon
HCT-116 colon = system: HCT-116 colon
HCT-15 colon = system: HCT-15 colon
HL-60(TB) leukemia = system: HL-60(TB) leukemia
HOP-62 NSCLC = system: HOP-62 NSCLC
HOP-92 NSCLC = system: HOP-92 NSCLC
HS 578T breast = system: HS 578T breast
HT29 colon = system: HT29 colon
IGROV1 ovarian = system: IGROV1 ovarian
K-562 leukemia = system: K-562 leukemia
KM12 colon = system: KM12 colon
LOX IMVI melanoma = system: LOX IMVI melanoma
M14 melanoma = system: M14 melanoma
MALME-3M melanoma = system: MALME-3M melanoma
MCF7 breast = system: MCF7 breast
MDA-MB-231 breast = system: MDA-MB-231 breast
MDA-MB-435 = system: MDA-MB-435
MOLT-4 leukemia = system: MOLT-4 leukemia
NCI-H226 lung = system: NCI-H226 lung
NCI-H23 lung = system: NCI-H23 lung
NCI-H460 lung = system: NCI-H460 lung
NCI-H522 lung = system: NCI-H522 lung
NCI/ADR-RES ovarian = system: NCI/ADR-RES ovarian
OVCAR-3 ovarian = system: OVCAR-3 ovarian
OVCAR-4 ovarian = system: OVCAR-4 ovarian
OVCAR-5 ovarian = system: OVCAR-5 ovarian
OVCAR-8 ovarian = system: OVCAR-8 ovarian
PC-3 prostate = system: PC-3 prostate
RPMI-8226 leukemia = system: RPMI-8226 leukemia
RXF 393 renal = system: RXF 393 renal
SF-268 CNS = system: SF-268 CNS
SF-295 CNS = system: SF-295 CNS
SF-539 CNS = system: SF-539 CNS
SK-MEL-2 melanoma = system: SK-MEL-2 melanoma
SK-MEL-28 melanoma = system: SK-MEL-28 melanoma
SK-MEL-5 melanoma = system: SK-MEL-5 melanoma
SK-OV-3 ovarian = system: SK-OV-3 ovarian
SN12C renal = system: SN12C renal
SNB-19 CNS = system: SNB-19 CNS
SNB-75 CNS = system: SNB-75 CNS
SR leukemia = system: SR leukemia
SW-620 colon = system: SW-620 colon
T-47D breast = system: T-47D breast
TK-10 renal = system: TK-10 renal
U251 CNS = system: U251 CNS
UACC-257 melanoma = system: UACC-257 melanoma
UACC-62 melanoma = system: UACC-62 melanoma
UO-31 renal = system: UO-31 renal

## Cc1cc(=O)n2nnc3c4ccccc4ccc3n12
786-0 renal
  GI50: 8.25 µM
  TGI: 20.6 µM
A498 renal
  GI50: 11.2 µM
  TGI: 23.2 µM
A549 NSCLC
  GI50: 10.8 µM
  TGI: 23.8 µM
ACHN renal
  GI50: 1.58 µM
  TGI: 2.97 µM
BT-549 breast
  GI50: 7.76 µM
  TGI: 21.1 µM
CAKI-1 renal
  GI50: 1.64 µM
  TGI: 3.33 µM
CCRF-CEM leukemia
  GI50: 1.06 µM
  TGI: 3.91 µM
COLO 205 colon
  GI50: 2.97 µM
  TGI: 8.77 µM
DU-145 prostate
  GI50: 11.3 µM
  TGI: 23.4 µM
HCC-2998 colon
  GI50: 16.5 µM
  TGI: 30.9 µM
HCT-116 colon
  GI50: 1.85 µM
  TGI: 3.46 µM
HCT-15 colon
  GI50: 2.86 µM
  TGI: 10.4 µM
HL-60(TB) leukemia
  GI50: 11.5 µM
  TGI: 37.2 µM
HOP-62 NSCLC
  GI50: 6.11 µM
  TGI: 20.9 µM
HOP-92 NSCLC
  GI50: 0.942 µM
  TGI: 15 µM
HS 578T breast
  GI50: 15.2 µM
  TGI: 49 µM
HT29 colon
  GI50: 2.36 µM
  TGI: 5.57 µM
IGROV1 ovarian
  GI50: 1.96 µM
  TGI: 4.52 µM
K-562 leukemia
  GI50: 1.8 µM
  TGI: 7.85 µM
KM12 colon
  GI50: 10.6 µM
  TGI: 22.6 µM
LOX IMVI melanoma
  GI50: 4.42 µM
  TGI: 16.2 µM
M14 melanoma
  GI50: 13.5 µM
  TGI: 27.1 µM
MALME-3M melanoma
  GI50: 2.08 µM
  TGI: 8.19 µM
MCF7 breast
  GI50: 2.86 µM
  TGI: 10.5 µM
MDA-MB-231 breast
  GI50: 11.4 µM
  TGI: 23.7 µM
MDA-MB-435
  GI50: 14.3 µM
  TGI: 29.9 µM
MOLT-4 leukemia
  GI50: 3.39 µM
  TGI: 19.5 µM
NCI-H226 lung
  GI50: 7.64 µM
  TGI: 27.1 µM
NCI-H23 lung
  GI50: 12.4 µM
  TGI: 27.9 µM
NCI-H460 lung
  GI50: 13.9 µM
  TGI: 30.4 µM
NCI-H522 lung
  GI50: 1.54 µM
  TGI: 2.93 µM
NCI/ADR-RES ovarian
  GI50: 3.87 µM
  TGI: 43.9 µM
OVCAR-3 ovarian
  GI50: 1.79 µM
  TGI: 3.37 µM
OVCAR-4 ovarian
  GI50: 1.5 µM
  TGI: 3.27 µM
OVCAR-5 ovarian
  GI50: 1.84 µM
  TGI: 14.7 µM
OVCAR-8 ovarian
  GI50: 2.03 µM
  TGI: 6.97 µM
PC-3 prostate
  GI50: 4.22 µM
  TGI: 17.7 µM
RPMI-8226 leukemia
  GI50: 0.959 µM
  TGI: 4.03 µM
RXF 393 renal
  GI50: 10.8 µM
  TGI: 22.8 µM
SF-268 CNS
  GI50: 11 µM
  TGI: 23.1 µM
SF-295 CNS
  GI50: 14.8 µM
  TGI: 30.2 µM
SF-539 CNS
  GI50: 3.5 µM
  TGI: 16.7 µM
SK-MEL-2 melanoma
  GI50: 16.5 µM
  TGI: 30.6 µM
SK-MEL-28 melanoma
  GI50: 13.9 µM
  TGI: 27.1 µM
SK-MEL-5 melanoma
  GI50: 12.8 µM
  TGI: 25.7 µM
SK-OV-3 ovarian
  GI50: 2.72 µM
  TGI: 20.3 µM
SN12C renal
  GI50: 7.34 µM
  TGI: 21.5 µM
SNB-19 CNS
  GI50: 12.8 µM
  TGI: 25.4 µM
SNB-75 CNS
  GI50: 14.9 µM
  TGI: 29.9 µM
SR leukemia
  GI50: 2.28 µM
  TGI: 13.7 µM
SW-620 colon
  GI50: 1.63 µM
  TGI: 3.11 µM
T-47D breast
  GI50: 1.38 µM
  TGI: 3.14 µM
TK-10 renal
  GI50: 1.68 µM
  TGI: 3.2 µM
U251 CNS
  GI50: 14.9 µM
  TGI: 28.1 µM
UACC-257 melanoma
  GI50: 13 µM
  TGI: 25.7 µM
UACC-62 melanoma
  GI50: 5.3 µM
  TGI: 18.6 µM
UO-31 renal
  GI50: 1.2 µM
  TGI: 2.72 µM
